Reference: ChEMBL document CHEMBL5252650, “An ATG4B inhibitor blocks autophagy and sensitizes Sorafenib inhibition activities in HCC tumor cells” (Bioorg Med Chem, 2023)
The source made the active and inactive calls. The rule behind the calls is not given here.

Assays:
SK-HEP1 [1] = assay: Inhibition of autophagy in human SK-HEP1 cells assessed as fold increase in p62 protein expression at 20 uM incubated for 24 hrs by immunoblot analysis relative to control; assay type: functional
SK-HEP1 [2] = assay: Inhibition of autophagy in human SK-HEP1 cells assessed as fold increase in p62 protein expression at 10 uM incubated for 24 hrs by immunoblot analysis relative to control; assay type: functional
[3] = Inhibition of sorafenib-induced autophagic flux in human SK-HEP1 cells assessed as fold increase in p62 protein expression at 20 uM incubated for 24 hrs in presence of 10 uM sorafenib by immunoblot analysis relative to control; assay type: functional
[4] = Inhibition of sorafenib-induced autophagic flux in human SK-HEP1 cells assessed as fold increase in LC3B-II protein expression at 20 uM incubated for 24 hrs in presence of 10 uM sorafenib by immunoblot analysis relative to control; assay type: functional
Huh-7 [5] = assay: Inhibition of autophagy in human Huh-7 cells assessed as reduction in LC3B-I protein expression at 10 to 20 uM incubated for 24 hrs by immunoblot analysis; assay type: functional, cell-based; conditions: dose 10-20 µM
SK-HEP1 [6] = assay: Potentiation of sorafenib-induced antiproliferative activity against human SK-HEP1 cells assessed as inhibition of cell proliferation at 20 uM incubated for 5 days in presence of sorafenib by CTG assay; assay type: functional, cell-based; conditions: time 5.0 day
SK-HEP1 [7] = assay: Inhibition of colony formation in human SK-HEP1 cells at 10 uM incubated for 14 days in presence of sorafenib by crystal violet staining based analysis; assay type: functional, cell-based; conditions: time 14.0 day
IMR-90 = assay: Cytotoxicity against human IMR-90 cells; assay type: toxicity, cell-based
SK-HEP1 [8] = assay: Inhibition of autophagy in human SK-HEP1 cells assessed as fold increase in LC3B-II protein expression at 20 uM incubated for 24 hrs by immunoblot analysis relative to control; assay type: functional
Huh-7 [9] = assay: Inhibition of autophagy in human Huh-7 cells assessed as fold increase in p62 protein expression at 20 uM incubated for 24 hrs by immunoblot analysis relative to control; assay type: functional
[10] = Inhibition of sorafenib-induced autophagic flux in human SK-HEP1 cells assessed as fold increase in p62 protein expression at 20 uM incubated for 24 hrs in presence of 5 uM sorafenib by immunoblot analysis relative to control; assay type: functional
SK-HEP1 [11] = assay: Inhibition of autophagy in human SK-HEP1 cells assessed as fold increase in LC3B-II protein expression at 10 uM incubated for 24 hrs by immunoblot analysis relative to control; assay type: functional
[12] = target: T1, Cysteine protease ATG4B (Homo sapiens) (UniProt Q9Y4P1); assay: Binding affinity to N-terminal His6/SUMO-tagged full length human ATG4B expressed in Escherichia coli BL21 (DE3) cells at 100 uM by CPMG spectroscopy
T1 sequence (whole entry): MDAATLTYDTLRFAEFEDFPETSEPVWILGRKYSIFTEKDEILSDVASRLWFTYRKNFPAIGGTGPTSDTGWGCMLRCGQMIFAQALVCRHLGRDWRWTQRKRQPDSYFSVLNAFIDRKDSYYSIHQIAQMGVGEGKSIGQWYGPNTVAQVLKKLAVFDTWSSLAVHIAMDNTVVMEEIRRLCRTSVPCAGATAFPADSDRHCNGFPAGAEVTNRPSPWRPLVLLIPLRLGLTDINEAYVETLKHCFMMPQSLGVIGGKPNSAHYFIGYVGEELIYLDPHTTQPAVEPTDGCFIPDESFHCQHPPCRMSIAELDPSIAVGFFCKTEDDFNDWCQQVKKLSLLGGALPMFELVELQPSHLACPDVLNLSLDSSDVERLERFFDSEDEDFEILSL

Huh-7 [13] = assay: Potentiation of sorafenib-induced antiproliferative activity against human Huh-7 cells assessed as inhibition of cell proliferation at 20 uM incubated for 5 days in presence of sorafenib by CTG assay; assay type: functional, cell-based; conditions: time 5.0 day
SK-HEP1 [14] = assay: Inhibition of autophagy in human SK-HEP1 cells assessed as reduction in LC3B-I protein expression at 10 to 20 uM incubated for 24 hrs by immunoblot analysis; assay type: functional, cell-based; conditions: dose 10-20 µM
[15] = target: T1, Cysteine protease ATG4B (Homo sapiens); assay: Inhibition of N-terminal His6/SUMO-tagged full length human ATG4B expressed in Escherichia coli BL21 (DE3) cells assessed as reduction in substrate cleavage using His-LC3B-GST as substrate preincubated with enzyme for 1 hr followed by substrate addition for 30 mins by gel electrophoresis analysis; conditions: dose 3.125-50 µM, time 1.5 hrs
Huh-7 [16] = assay: Inhibition of autophagy in human Huh-7 cells assessed as fold increase in LC3B-II protein expression at 10 uM incubated for 24 hrs by immunoblot analysis relative to control; assay type: functional
Huh-7 [17] = assay: Inhibition of autophagy in human Huh-7 cells overexpressing TurboRFP-EGFP-LC3B assessed as increase in yellow dot puncta formation at 10 uM incubated for 24 hrs by immunofluorescence assay; assay type: functional, cell-based
[18] = Inhibition of sorafenib-induced autophagic flux in human Huh-7 cells assessed as fold increase in p62 protein expression at 20 uM incubated for 24 hrs in presence of 5 uM sorafenib by immunoblot analysis relative to control; assay type: functional
[19] = Inhibition of sorafenib-induced autophagic flux in human Huh-7 cells assessed as fold increase in LC3B-II protein expression at 20 uM incubated for 24 hrs in presence of 10 uM sorafenib by immunoblot analysis relative to control; assay type: functional
MRC5 = assay: Cytotoxicity against human MRC5 cells; assay type: toxicity, cell-based
[20] = Inhibition of sorafenib-induced autophagic flux in human Huh-7 cells assessed as fold increase in LC3B-II protein expression at 20 uM incubated for 24 hrs in presence of 5 uM sorafenib by immunoblot analysis relative to control; assay type: functional
Huh-7 [21] = assay: Inhibition of colony formation in human Huh-7 cells at 10 uM incubated for 14 days in presence of sorafenib by crystal violet staining based analysis; assay type: functional, cell-based; conditions: time 14.0 day
Huh-7 [22] = assay: Cytotoxicity against human Huh-7 cells assessed as reduction in cell viability incubated for 72 hrs by CellTiter-Glo luminescent assay; assay type: functional, cell-based; conditions: Huh-7, 72 h
[23] = Inhibition of sorafenib-induced autophagic flux in human Huh-7 cells assessed as fold increase in p62 protein expression at 20 uM incubated for 24 hrs in presence of 10 uM sorafenib by immunoblot analysis relative to control; assay type: functional
Huh-7 [24] = assay: Inhibition of autophagy in human Huh-7 cells overexpressing TurboRFP-EGFP-LC3B assessed as increase in number of red dots at 10 uM incubated for 24 hrs by immunofluorescence assay; assay type: functional, cell-based
[25] = target: T1, Cysteine protease ATG4B (Homo sapiens); assay: (§1) Inhibition of N-terminal His6/SUMO-tagged full length human ATG4B expressed in Escherichia coli BL21 (DE3) cells using His-LC3B-GST as substrate preincubated with enzyme for 1 hr followed by substrate addition for 1 hr by HTRF assay; conditions: time 2.0 hrs
Cysteine protease ATG4B [26] = target: T2, Cysteine protease ATG4B (Homo sapiens, UniProt Q9Y4P1); assay: as §1
T2 sequence (Q9Y4P1 whole entry): T1 sequence (whole entry)

SK-HEP1 [27] = assay: Cytotoxicity against human SK-HEP1 cells assessed as reduction in cell viability incubated for 72 hrs by CellTiter-Glo luminescent assay; assay type: functional, cell-based; conditions: SK-HEP1, 72 h
Cysteine protease ATG4B [28] = target: T2, Cysteine protease ATG4B; assay: Binding affinity to N-terminal His6/SUMO-tagged full length human ATG4B expressed in Escherichia coli BL21 (DE3) cells by SPR assay
Huh-7 [29] = assay: Inhibition of autophagy in human Huh-7 cells assessed as fold increase in LC3B-II protein expression at 20 uM incubated for 24 hrs by immunoblot analysis relative to control; assay type: functional
Huh-7 [30] = assay: Inhibition of autophagy in human Huh-7 cells assessed as fold increase in p62 protein expression at 10 uM incubated for 24 hrs by immunoblot analysis relative to control; assay type: functional
Huh-7 [31] = assay: Inhibition of sorafenib-induced autophagic flux in human Huh-7 cells overexpressing TurboRFP-EGFP-LC3B assessed as increase in yellow dot puncta formation at 10 uM incubated for 24 hrs in presence of 5 uM sorafenib by immunofluorescence assay; assay type: functional, cell-based
[32] = Inhibition of sorafenib-induced autophagic flux in human SK-HEP1 cells assessed as fold increase in LC3B-II protein expression at 20 uM incubated for 24 hrs in presence of 5 uM sorafenib by immunoblot analysis relative to control; assay type: functional

Activity [12]: Active | inhibition [15]: Dose-Dependent Effect | inhibition [25]: Dose-Dependent Effect | IC50 (Cysteine protease ATG4B [26]): 3.08 µM | Kd (Cysteine protease ATG4B [28]): 14.3 µM
Structure (SMILES): S=C(Nc1ccc2nc(-c3ccco3)c(-c3ccco3)nc2c1)N1CCCCCC1
fold change (FC) (SK-HEP1 [1]): 2.4 | fold change (FC) (SK-HEP1 [2]): 2.1 | fold change (FC) [3]: 0.82 | fold change (FC) [4]: 0.66 | inhibition (Huh-7 [5]): Active | Activity (SK-HEP1 [6]): Active | inhibition (SK-HEP1 [7]): Active | Activity (IMR-90): Non-Toxic | fold change (FC) (SK-HEP1 [8]): 1.6 | fold change (FC) (Huh-7 [9]): 2.8 | fold change (FC) [10]: 0.85 | fold change (FC) (SK-HEP1 [11]): 1.46 | Activity (Huh-7 [13]): Active | inhibition (SK-HEP1 [14]): Active | fold change (FC) (Huh-7 [16]): 1.5 | inhibition (Huh-7 [17]): Active | fold change (FC) [18]: 1.1 | fold change (FC) [19]: 0.64 | Activity (MRC5): Non-Toxic | fold change (FC) [20]: 0.76 | inhibition (Huh-7 [21]): Active | IC50 (Huh-7 [22]): 25.3 µM | fold change (FC) [23]: 0.84 | inhibition (Huh-7 [24]): Active | IC50 (SK-HEP1 [27]): 23.6 µM | fold change (FC) (Huh-7 [29]): 1.6 | fold change (FC) (Huh-7 [30]): 2.3 | inhibition (Huh-7 [31]): Active | fold change (FC) [32]: 0.82
